Results published in US5149717A, “Alkanophenones useful for treating allergies” (Ciba-Geigy Corporation, priority 1988, dated 1992).
Structures can show the parent of a compound that is named as a salt.

Legend:
[1] = molecular target: phospholipase C obtained from human thrombocytes; experiment: In vitro test to determine the inhibition of phospholipase C obtained from human thrombocytes; type: biochemical; conditions: under the described test conditions
Method: Human thrombocytes are obtained from "Buffy coats" by fractional centrifugation and are then deep-frozen. The phospholipase C is freed by ultrasound treatment of the cell suspension and after ultracentrifugation (150,000×g for 1 hour) is present in soluble form in the supernatant.
In order to determine the enzyme activity, enzyme (20-100 μg of protein) is incubated at 37° for 5 minutes in 0.025M tris/maleate buffer pH 6 with the addition of 0.2 mmol of CaCl2 and 0.02 mmol of radioactively labelled substrate, phosphatidyl-[^14 C]-inositol. The reaction is stopped by shaking with CHCl3 /CH3 OH 2:1 (v/v), in the course of which unused substrate is extracted into the organic phase, while the reaction product, ^14 C-inositol phosphate, remains in the aqueous phase and can be measured by radiometry of an aliquot.
In order to detect an inhibitory action of test substances on phospholipase C, the test substances are added to the incubation mixture in the form of solutions in water, dimethyl sulfoxide (final concentration in the batch up to 5%, v/v) or ethanol (final concentration in the batch up to 2.5%, v/v). […] The IC50 is determined graphically by plotting the percentage inhibition on the ordinate against the log of the concentration (μm) on the abscissa.

[2] = molecular target: phospholipase A2 obtained from human leucocytes; experiment: In vitro test to determine the inhibition of phospholipase A2 obtained from human leucocytes; type: biochemical; conditions: under the described test conditions
Method: Neutrophilic polymorpho-nuclear human leucocytes are isolated from "Buffy coats" by multi-step fractional sedimentation and are deep-frozen. The phospholipase A2 is extracted from the cell suspension by homogenisation with the addition of ice-cold 0.36N H2 SO4 in 2N NaCl and the supernatant obtained after centrifugation at 10,000×g is dialysed against sodium acetate buffer pH 4.5.
In order to determine the enzyme activity, enzyme (10-30 μg of protein) is incubated at 37° for 1 hour in 0.1M tris/HCl buffer pH 7 with the addition of 1 mmol of CaCl2 and substrate consisting of phospholipids (2 μm) of Escherichia coli radioactively labelled biosynthetically with ^14 C-oleic acid. The reaction is stopped by the addition of Dole reagent (isopropanol/heptane/1N H2 SO4 40:10:1, v/v) and the ^14 C-oleic acid freed selectively by phospholipase A2 is extracted. […]
In order to detect an inhibitory action of test substances on phospholipase A2, the test substances are added to the incubation mixture in the form of solutions in water, dimethyl sulfoxide (final concentration in the batch up to 5%, v/v) or ethanol (final concentration in the batch up to 2.5%, v/v). […] The IC50 is determined graphically by plotting the percentage inhibition on the ordinate against the log of the concentration (μm) on the abscissa.

IC50 [1]: 20 µM | IC50 [2]: 1600 µM
Structure (SMILES): CCN(CC)CCCC(C)Nc1c2ccc(Cl)cc2nc2ccc(OC)cc12 (centres unmarked) [MEPACRINE, quinacrin hydrochloride]
